Reference: ChEMBL document CHEMBL3227974, “Multivariate analysis and quantitative structure-activity relationships. Inhibition of dihydrofolate reductase and thymidylate synthetase by quinazolines” (J Med Chem, 1979)

Experiments:
[1] = target: Thymidylate synthase (Mus musculus) (UniProt P07607); experiment: Inhibition of thymidylate synthetase in mouse L1210S cells; type: cell-based
[2] = target: T1, Thymidylate synthase (Lactobacillus casei) (UniProt P00469); experiment: Inhibition of thymidylate synthetase in Lactobacillus casei; settings: Lacticaseibacillus casei
T1 sequence (whole entry): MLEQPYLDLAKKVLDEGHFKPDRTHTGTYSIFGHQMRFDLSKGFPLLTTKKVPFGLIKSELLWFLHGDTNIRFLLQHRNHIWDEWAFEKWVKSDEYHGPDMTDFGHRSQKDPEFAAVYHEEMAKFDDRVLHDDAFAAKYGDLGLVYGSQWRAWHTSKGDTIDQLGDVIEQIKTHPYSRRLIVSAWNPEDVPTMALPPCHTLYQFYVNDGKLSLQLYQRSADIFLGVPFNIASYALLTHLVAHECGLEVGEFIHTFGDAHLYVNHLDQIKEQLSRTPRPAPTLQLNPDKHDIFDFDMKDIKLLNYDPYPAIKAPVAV

[3] = target: T2, Dihydrofolate reductase (Homo sapiens) (UniProt P00374)
T2 sequence (whole entry): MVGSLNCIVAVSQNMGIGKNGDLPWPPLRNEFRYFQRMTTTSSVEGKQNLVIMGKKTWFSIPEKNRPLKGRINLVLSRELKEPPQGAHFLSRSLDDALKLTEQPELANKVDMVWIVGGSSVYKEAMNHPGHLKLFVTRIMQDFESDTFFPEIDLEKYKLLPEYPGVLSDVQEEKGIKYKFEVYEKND
Description: Inhibition of dihydrofolate reductase in human acute lymphocytic leukemia cells

[4] = target: T3, Dihydrofolate reductase (Mus musculus) (UniProt P00375); experiment: Inhibition of dihydrofolate reductase in mouse L1210R cells; type: cell-based
T3 sequence (whole entry): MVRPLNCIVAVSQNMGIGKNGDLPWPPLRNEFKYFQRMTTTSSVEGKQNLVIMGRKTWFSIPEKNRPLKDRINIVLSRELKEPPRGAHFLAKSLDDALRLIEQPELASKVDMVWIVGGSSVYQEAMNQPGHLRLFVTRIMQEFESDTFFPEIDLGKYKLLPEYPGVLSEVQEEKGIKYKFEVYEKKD

Chain of Thymidylate synthase (Mus musculus) (P07607 whole entry, looked up): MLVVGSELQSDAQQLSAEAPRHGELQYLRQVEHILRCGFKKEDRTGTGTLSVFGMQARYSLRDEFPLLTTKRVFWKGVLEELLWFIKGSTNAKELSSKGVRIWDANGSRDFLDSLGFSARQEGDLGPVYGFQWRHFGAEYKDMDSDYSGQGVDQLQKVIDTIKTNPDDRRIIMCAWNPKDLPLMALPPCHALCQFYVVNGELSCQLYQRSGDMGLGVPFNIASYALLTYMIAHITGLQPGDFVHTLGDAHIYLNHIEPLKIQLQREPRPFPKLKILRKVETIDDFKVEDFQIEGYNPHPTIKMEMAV

SMILES | log(1/I50) [1] | log(1/I50) [2] | log(1/I50) [3] | log(1/I50) [4]
Nc1nc(O)c2cc(CCc3ccc(C(=O)NC(CCC(=O)O)C(=O)O)cc3)ccc2n1 (stereo not drawn) | 5.3 | 5.12 | 6.31 | 
Nc1nc(N)c2c(Cl)c(CNc3ccc(C(=O)NC(CC(=O)O)C(=O)O)cc3)ccc2n1 (stereo not drawn) |  |  | 9.35 | 9.21
Nc1nc(N)c2cc(CNc3ccc(Cl)c(C(=O)NC(CC(=O)O)C(=O)O)c3)ccc2n1 (stereo not drawn) |  |  | 7.92 | 8.37
Nc1nc(N)c2c(Cl)c(CNc3ccc(Cl)c(Cl)c3)ccc2n1 |  |  | 8.96 | 8.7
Nc1nc(N)c2cc(CNc3ccc(Cl)c(C(=O)NC(CCC(=O)O)C(=O)O)c3)ccc2n1 (stereo not drawn) |  |  | 6.7 | 8.03
Cc1c(CNc2ccc(C(=O)NC(CC(=O)O)C(=O)O)cc2)ccc2nc(N)nc(N)c12 (stereo not drawn) | 6 | 5 | 8.9 | 8.87
Nc1nc(N)c2cc(CNc3ccc(Cl)c(Cl)c3)ccc2n1 |  |  | 8.42 | 8.05
Cc1c(NCc2ccc(C(=O)NC(CCC(=O)O)C(=O)O)cc2)ccc2nc(N)nc(N)c12 (stereo not drawn) | 6.6 | 5.6 | 9.07 | 
Cc1c(CNc2ccc(C(=O)NC(CC(=O)O)CC(=O)O)cc2)ccc2nc(N)nc(N)c12 |  |  | 8.17 | 9.15
Nc1nc(N)c2cc(CNc3cc(C(=O)NC(CC(=O)O)C(=O)O)ccc3Cl)ccc2n1 (stereo not drawn) |  |  | 8.52 | 8.54
CCOC(=O)CCC(NC(=O)c1ccc(NCc2ccc3nc(N)nc(N)c3c2C)cc1)C(=O)OCC (stereo not drawn) | 5.12 | 4.3 | 8.49 | 
Nc1nc(O)c2cc(NCc3ccc(C(=O)O)cc3)ccc2n1 | 4 | 4 |  | 
Nc1nc(N)c2cc(CN(C=O)c3ccc(C(=O)O)cc3)ccc2n1 | 4 | 4.12 |  | 
CCOC(=O)CCC(NC(=O)c1ccc(CNc2ccc3nc(N)nc(N)c3c2)cc1)C(=O)OCC (stereo not drawn) | 6 | 5 | 7.66 | 
CCOC(=O)CCC(NC(=O)c1ccc(NCc2ccc3nc(N)nc(O)c3c2)cc1)C(=O)OCC (stereo not drawn) | 6.6 | 4.15 |  | 
Nc1nc(N)c2cc(CNc3ccc(C(=O)NC(CCC(=O)O)C(=O)O)cc3)ccc2n1 (stereo not drawn) | 5 | 4 |  | 
Cc1c(CNc2ccc(Cl)c(C(=O)NC(CCC(=O)O)C(=O)O)c2)ccc2nc(N)nc(N)c12 (stereo not drawn) |  |  | 8.52 | 8.68
Nc1nc(N)c2cc(CN(C=O)c3ccc(C(=O)NC(CCC(=O)O)C(=O)O)cc3)ccc2n1 (stereo not drawn) |  |  | 8.22 | 
CCOC(=O)c1ccc(NCc2ccc3nc(N)nc(O)c3c2)cc1 | 4 | 4 | 4.66 | 
Nc1nc(N)c2cc(NCc3ccc(C(=O)NC(CCC(=O)O)C(=O)O)cc3)ccc2n1 (stereo not drawn) | 6.6 | 5.3 | 8 | 
Cc1c(CNc2ccc(C(=O)NC(CCC(=O)O)C(=O)O)cc2)ccc2nc(N)nc(O)c12 (stereo not drawn) | 7 | 4.9 |  | 
Cc1c(NCc2ccc(C(=O)NC(CCC(=O)O)C(=O)O)cc2)ccc2nc(N)nc(O)c12 (stereo not drawn) | 5.12 | 4.3 | 6.12 | 

SMILES | log(1/I50) [1] | log(1/I50) [2] | log(1/I50) [3] | log(1/I50) [4]
CCOC(=O)CCC(NC(=O)c1ccc(SCc2ccc3nc(N)nc(O)c3c2)cc1)C(=O)OCC (stereo not drawn) | 7 | 5.1 | 5.05 | 
CCOC(=O)CCC(NC(=O)c1ccc(CNc2ccc3nc(N)nc(O)c3c2C)cc1)C(=O)OCC (stereo not drawn) | 5.12 | 4 | 5.1 | 
CCOC(=O)CCC(NC(=O)c1ccc(CNc2ccc3nc(N)nc(O)c3c2)cc1)C(=O)OCC (stereo not drawn) | 6 | 4.46 | 5.65 | 
Nc1nc(=O)c2cc(CSc3ccc(C(=O)NC(CCC(=O)O)C(=O)O)cc3)ccc2[nH]1 (stereo not drawn) | 6 | 5.6 | 4.9 | 
Nc1nc(O)c2cc(COc3ccc(C(=O)NC(CCC(=O)O)C(=O)O)cc3)ccc2n1 (stereo not drawn) | 5 | 4 |  | 
Nc1nc(N)c2cc(CNc3cccc(Cl)c3)ccc2n1 |  |  | 8 | 8
Nc1nc(O)c2cc(CN(C=O)c3ccc(C(=O)NC(CCC(=O)O)C(=O)O)cc3)ccc2n1 (stereo not drawn) | 7 | 5.52 |  | 
Nc1nc(N)c2cc(CNc3ccc(C(=O)NC(CC(=O)O)CC(=O)O)cc3)ccc2n1 |  |  | 8.25 | 8.14
Nc1nc(N)c2cc(NCc3ccc(C(=O)NC(CC(=O)O)C(=O)O)cc3)ccc2n1 (stereo not drawn) |  |  |  | 7.36
Cc1c(CNc2cccc(Br)c2)ccc2nc(N)nc(N)c12 |  |  | 8.82 | 8.82
NC(=O)CCC(NC(=O)c1ccc(NCc2ccc3nc(N)nc(N)c3c2)cc1)C(=O)O (stereo not drawn) |  |  | 10.1 | 9.66
CCOC(=O)c1ccc(CNc2ccc3nc(N)nc(O)c3c2C)cc1 | 4 | 4.05 |  | 
Nc1nc(O)c2cc(CNc3ccc(C(=O)O)cc3)ccc2n1 | 4 | 4 |  | 
Nc1nc(=O)c2cc(NCc3ccc(C(=O)NC(CCC(=O)O)C(=O)O)cc3)ccc2[nH]1 (stereo not drawn) | 6.3 | 5 | 5.78 | 
Nc1nc(N)c2cc(CNc3cccc(Br)c3)ccc2n1 |  |  | 8.66 | 8.64
Nc1nc(N)c2cc(Oc3ccc(CNc4ccc(C(=O)NC(CCC(=O)O)C(=O)O)cc4)cc3)ccc2n1 (stereo not drawn) |  |  | 7.8 | 7.71
CCOC(=O)c1ccc(NCc2ccc3nc(N)nc(N)c3c2)cc1 | 4 | 4 |  | 
CCOC(=O)c1ccc(CNc2ccc3nc(N)nc(N)c3c2C)cc1 | 4 | 5 |  | 8
Nc1nc(N)c2cc(CNc3ccc(C(=O)NC(C(=O)O)C(=O)O)cc3)ccc2n1 |  |  | 9.1 | 8.81
CCOC(=O)c1ccc(CNc2ccc3nc(N)nc(O)c3c2)cc1 | 4 | 4.3 | 5.49 | 
CCOC(=O)CCC(NC(=O)c1ccc(N(C)Cc2ccc3nc(N)nc(O)c3c2)cc1)C(=O)OCC (stereo not drawn) | 5.12 | 4.12 |  | 
Nc1nc(S)c2cc(CNc3ccc(C(=O)O)cc3)ccc2n1 | 4 | 4 |  | 

SMILES | log(1/I50) [1] | log(1/I50) [2] | log(1/I50) [3] | log(1/I50) [4]
Nc1nc(N)c2cc(CNc3ccc(C(=O)NC(CC(=O)O)C(=O)O)cc3)ccc2n1 (stereo not drawn) |  |  | 8.94 | 8.76
CN(Cc1ccc2nc(N)nc(S)c2c1)c1ccc(C(=O)O)cc1 | 5.12 | 4.12 |  | 
COc1cc(NCc2ccc3nc(N)nc(N)c3c2C)cc(OC)c1OC |  |  | 8.89 | 8.92
Nc1nc(N)c2cc(Oc3ccc(CNc4ccc(C(=O)NC(CC(=O)O)C(=O)O)cc4)cc3)ccc2n1 (stereo not drawn) |  |  | 7.77 | 7.67
COc1cc(NCc2ccc3nc(N)nc(N)c3c2)cc(OC)c1OC |  |  | 8.22 | 
Cc1c(CNc2ccc(C(=O)NC(CCC(=O)O)C(=O)O)cc2)ccc2nc(N)nc(N)c12 (stereo not drawn) |  |  | 8.78 | 
Nc1nc(N)c2cc(CNc3ccc(C(=O)NC(CC(=O)O)C(=O)O)cc3Cl)ccc2n1 (stereo not drawn) |  |  | 8.82 | 9.13
CCOC(=O)CCC(NC(=O)c1ccc(NCc2ccc3nc(N)nc(N)c3c2)cc1)C(=O)OCC (stereo not drawn) | 4 | 4 |  | 
Nc1nc(N)c2cc(CNc3ccc(Cl)cc3)ccc2n1 |  |  | 8.22 | 8.3
CN(Cc1ccc2nc(N)nc(N)c2c1)c1ccc(C(=O)NC(CC(=O)O)C(=O)O)cc1 (stereo not drawn) |  |  | 8.69 | 8.66
CC(=O)N(Cc1ccc2nc(N)nc(N)c2c1)c1ccc(Cl)c(Cl)c1 |  |  | 7.3 | 
Cc1c(NCc2ccc(C(=O)O)cc2)ccc2nc(N)nc(O)c12 | 4.05 | 4.05 |  | 
Nc1nc(N)c2cc(CN(N=O)c3ccc(Cl)c(Cl)c3)ccc2n1 |  |  | 8 | 8
CN(Cc1ccc2nc(N)nc(O)c2c1)c1ccc(C(=O)O)cc1 | 4.7 | 4.12 |  | 
Cc1c(CNc2ccc(Cl)c(Cl)c2)ccc2nc(N)nc(N)c12 |  |  | 8.59 | 
CCOC(=O)c1ccc(NCc2ccc3nc(N)nc(N)c3c2C)cc1 | 4 | 4 |  | 
CN(Cc1ccc2nc(N)nc(N)c2c1)c1ccc(Cl)c(Cl)c1 |  |  | 8.3 | 
Cc1c(CN(N=O)c2ccc(Cl)c(Cl)c2)ccc2nc(N)nc(N)c12 |  |  | 8 | 
CN(Cc1ccc2nc(N)nc(O)c2c1)c1ccc(C(=O)NC(CCC(=O)O)C(=O)O)cc1 (stereo not drawn) | 7.3 | 6.4 | 6.22 | 
Nc1nc(N)c2cc(CNc3ccc(Cl)c(C(F)(F)F)c3)ccc2n1 |  |  | 8.4 | 
Nc1nc(N)c2c(Cl)c(CNc3ccc(C(=O)NC(CCC(=O)O)C(=O)O)cc3)ccc2n1 (stereo not drawn) |  |  | 9.11 | 9.05
